Among the test systems are ACHN; CCRF-CEM; EKVX; HL-60; HT-29; IGROV-1; Malme-3M; OVCAR-3; OVCAR-4; RXF 393; SN12C; TK-10; UO-31; HCT-116; NCI-H226.
Common to all, as to assay: NCI anticancer screen, dose series, 48 h

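Where inhibition never reached the appropriate level, the endpoint shown equals the highest concentration tested. Otherwise, values were interpolated linearly from a five-concentration, 48-hour dose response in 96-well plates. At the GI50, growth is halved.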 Active and inactive are the calls of the source. No stated cut-off is given here; in the data, active = GI50 up to about 1.1 µM and inactive = higher.

As to `CN1c2ccccc2N(C(=O)c2ccccc2)C(CC(=O)O)c2cccn21` (stereo not given), the GI50 with ACHN, in the experiment on CCRF-CEM, in the experiment with EKVX, with HL-60, with HT-29 and with IGROV-1 was > 100 µM (inactive) each time. For the same compound, the GI50 in the experiment on Malme-3M was > 100 µM (inactive); with OVCAR-3, > 100 µM (inactive); in the experiment with OVCAR-4 it was > 100 µM (inactive); in the experiment with RXF 393, 43.1 µM (inactive); with SN12C, > 100 µM (inactive); in the experiment with TK-10, > 100 µM (inactive). Further, the GI50 in the experiment on UO-31 was > 100 µM (inactive).
Regarding `COC(CN1C=C(Sc2ccccc2)CC1)OC`, the GI50 in the experiment on ACHN is 34.6 µM (inactive); in the experiment with CCRF-CEM, 19.5 µM (inactive); with EKVX, 43.3 µM (inactive); in the experiment on HCT-116, 29.5 µM (inactive); with HL-60 it was 15.6 µM (inactive); in the experiment on HT-29, 24.8 µM (inactive). Moreover, the GI50 in the experiment on IGROV-1 is 53.2 µM (inactive); in the experiment with Malme-3M, 35.9 µM (inactive); in the experiment on NCI-H226 it was 33.3 µM (inactive); in the experiment on OVCAR-3, 20.2 µM (inactive); in the experiment with OVCAR-4, 34 µM (inactive); with RXF 393, 20.8 µM (inactive). The GI50 in the experiment on SN12C was 33.9 µM (inactive); in the experiment with TK-10, 32.7 µM (inactive); with UO-31, 29.9 µM (inactive).
Regarding `CCCCCCCCOCC(CO)OCCCCCCCC` (stereo not given), the GI50 in the experiment with ACHN is 17.2 µM (inactive); in the experiment on CCRF-CEM, 22.5 µM (inactive); with HCT-116 it was 19.4 µM (inactive); with HL-60, 19 µM (inactive); in the experiment with HT-29, 20.6 µM (inactive); with IGROV-1, 21.7 µM (inactive). For the same compound, the GI50 is 19.6 µM (inactive) in the experiment on Malme-3M; 24.4 µM (inactive) in the experiment with NCI-H226; 19.9 µM (inactive) in the experiment with OVCAR-3; 19.2 µM (inactive) in the experiment with OVCAR-4; 17.4 µM (inactive) in the experiment on SN12C; 19.2 µM (inactive) with TK-10. Besides, the GI50 with UO-31 is 20 µM (inactive).
For `Cn1cc(NC(=O)c2cc(NC(=O)Nc3cc(C(=O)Nc4cc(C(=O)NCCC(=N)N)n(C)c4)n(C)c3)cn2C)cc1C(=O)NCCC(=N)N`, the GI50 in the experiment on ACHN was 25.2 µM (inactive); in the experiment with CCRF-CEM it was 22 µM (inactive); in the experiment with EKVX, 52.2 µM (inactive); with HCT-116, 37.2 µM (inactive); in the experiment on HL-60, 60.7 µM (inactive); in the experiment on HT-29 it was > 100 µM (inactive). Further, the GI50 in the experiment with IGROV-1 was 24.5 µM (inactive); in the experiment on Malme-3M, 24.9 µM (inactive); in the experiment on OVCAR-3, 41.1 µM (inactive); in the experiment with OVCAR-4, 38.7 µM (inactive); in the experiment with RXF 393, 22.4 µM (inactive); in the experiment with SN12C it was 86.7 µM (inactive). The values for the GI50 in the experiment with TK-10 and in the experiment with UO-31 were 22.5 µM (inactive) and 33.1 µM (inactive), respectively.
Regarding `CCOC(=O)C(=O)CC1=Nc2ccccc2SC(c2cccc(C)c2)C1` (stereo not given), the GI50 with ACHN was 16.6 µM (inactive); in the experiment with CCRF-CEM it was 20.6 µM (inactive); with EKVX, 21.5 µM (inactive); with HCT-116, 14.7 µM (inactive); with HT-29, 15.5 µM (inactive); in the experiment with IGROV-1, 18.4 µM (inactive). Also, the GI50 in the experiment on Malme-3M is 17.3 µM (inactive); in the experiment with NCI-H226 it was 16.9 µM (inactive); in the experiment on OVCAR-3, 19.5 µM (inactive); with OVCAR-4, 18 µM (inactive); in the experiment with SN12C it was 17.1 µM (inactive); in the experiment with UO-31 it was 15.4 µM (inactive).
Take `CCc1cccc(C(C)C)c1NC(=O)C(=O)C1C(=O)NC(=O)NC1=O`: the GI50 in the experiment on ACHN, in the experiment on CCRF-CEM, with EKVX, in the experiment with HCT-116, with HL-60 and in the experiment with HT-29 was > 100 µM (inactive) in each case. Moreover, the GI50 in the experiment with IGROV-1, with Malme-3M, in the experiment on NCI-H226, with OVCAR-3, in the experiment with OVCAR-4 and in the experiment with RXF 393 was > 100 µM (inactive) in each case. Moreover, the GI50 in the experiment on SN12C, in the experiment on TK-10 and with UO-31 was > 100 µM (inactive) throughout.
On to `CC1CC(=O)C(C(O)CC2CC(=O)N(c3ccccc3)C(=O)C2)C(C)C1` (stereo not given), for which the GI50 with ACHN, in the experiment on CCRF-CEM, with EKVX, in the experiment with HCT-116, in the experiment with HL-60 and in the experiment with HT-29 was > 100 µM (inactive) each time. In addition, the GI50 with IGROV-1, with Malme-3M, in the experiment on NCI-H226, with OVCAR-3, in the experiment on OVCAR-4 and with RXF 393 was > 100 µM (inactive) each time. Further, the GI50 in the experiment with SN12C, with TK-10 and in the experiment with UO-31 was > 100 µM (inactive) each time.
For the compound `Cc1ccc(-n2c(=S)[nH]c3ccc(Br)cc3c2=O)cc1`, the GI50 in the experiment with ACHN, with EKVX, in the experiment on HCT-116, with HL-60, in the experiment with HT-29 and with IGROV-1 was > 100 µM (inactive) throughout. In addition, the GI50 in the experiment on Malme-3M, in the experiment on NCI-H226, with OVCAR-3, with OVCAR-4, in the experiment with RXF 393 and in the experiment with SN12C was > 100 µM (inactive) throughout. In addition, the GI50 with TK-10 and with UO-31 was > 100 µM (inactive) each time.
On to `CC(=O)O[C@]12CCC[C@H]1C1(O)C(O)CCC[C@H]12` (stereo not given in full), for which the GI50 in the experiment with ACHN, in the experiment on CCRF-CEM, with EKVX, with HCT-116, in the experiment with HL-60 and with HT-29 was > 100 µM (inactive) each time. Moreover, the GI50 in the experiment with Malme-3M, with NCI-H226, with OVCAR-4, in the experiment with RXF 393, in the experiment with SN12C and in the experiment on TK-10 was > 100 µM (inactive) throughout. Besides, the GI50 in the experiment with UO-31 is > 100 µM (inactive).
With `COC(=O)/C(C#N)=C1\NN=NN1c1ccc(OC)cc1`, the GI50 with ACHN, in the experiment with CCRF-CEM, in the experiment with EKVX, in the experiment with HCT-116, with HT-29 and with IGROV-1 was > 100 µM (inactive) each time. Besides, the GI50 in the experiment with Malme-3M, in the experiment with NCI-H226, with OVCAR-3, in the experiment with RXF 393, with SN12C and in the experiment on TK-10 was > 100 µM (inactive) in each case. Further, the GI50 with UO-31 was > 100 µM (inactive).
Take `O=C(CSc1nc(-c2ccccc2)c(-c2ccccc2)[nH]1)NNC(=S)Nc1ccccc1`: the GI50 in the experiment with ACHN is 85.1 µM (inactive); with CCRF-CEM it was 39.4 µM (inactive); with EKVX, 0.414 µM (active); in the experiment with HCT-116 it was 97.1 µM (inactive); in the experiment on HL-60 it was 22.8 µM (inactive); in the experiment with HT-29, 69.2 µM (inactive). Also, the GI50 in the experiment on IGROV-1 is 82.4 µM (inactive); in the experiment with Malme-3M it was > 100 µM (inactive); in the experiment with NCI-H226, > 100 µM (inactive); with OVCAR-3 it was 59.8 µM (inactive); in the experiment on OVCAR-4, 64 µM (inactive); with SN12C, > 100 µM (inactive). Moreover, the results for the GI50 in the experiment with TK-10 and with UO-31 were 53.2 µM (inactive) and 71.9 µM (inactive), respectively.
In the case of `Cc1ccc(S(=O)(=O)c2c(N)c3nc4ccccc4n3c3nc4ccccc4nc23)cc1`, the GI50 with ACHN, in the experiment on CCRF-CEM, in the experiment on EKVX, with HCT-116, with HT-29 and in the experiment with IGROV-1 was > 100 µM (inactive) each time. Besides, the GI50 in the experiment on Malme-3M is > 100 µM (inactive); with NCI-H226, > 100 µM (inactive); in the experiment with OVCAR-3, > 100 µM (inactive); in the experiment on OVCAR-4 it was 38.7 µM (inactive); in the experiment with SN12C it was > 100 µM (inactive); in the experiment on UO-31, 71.4 µM (inactive).
On to `C/C=C(/CCCCNCCCC)[Si](C)(C)C`, for which the GI50 is 14 µM (inactive) in the experiment on ACHN; 8.26 µM (inactive) with CCRF-CEM; 12.4 µM (inactive) in the experiment with EKVX; 12.4 µM (inactive) with HCT-116; 6.64 µM (inactive) with HL-60; 3.94 µM (inactive) in the experiment on HT-29. In addition, the GI50 in the experiment with IGROV-1 is 19.2 µM (inactive); in the experiment with Malme-3M, 16.9 µM (inactive); in the experiment on OVCAR-3, 14.5 µM (inactive); with RXF 393, 8.65 µM (inactive); in the experiment on SN12C, 16.2 µM (inactive); with TK-10, 15 µM (inactive). Besides, the GI50 in the experiment on UO-31 is 17.5 µM (inactive).
Consider `c1ccc2c(c1)CCC/C2=N\OCC1CO1` (stereo not given), for which the GI50 with ACHN is 68.4 µM (inactive); in the experiment with CCRF-CEM, 23.2 µM (inactive); in the experiment on EKVX, > 100 µM (inactive); in the experiment on HCT-116 it was 47.2 µM (inactive); in the experiment with HL-60, 28.4 µM (inactive); in the experiment on HT-29, 98.4 µM (inactive). Also, the GI50 is > 100 µM (inactive) in the experiment with IGROV-1; > 100 µM (inactive) in the experiment with Malme-3M; > 100 µM (inactive) in the experiment with OVCAR-3; > 100 µM (inactive) in the experiment with OVCAR-4; 31.8 µM (inactive) in the experiment on RXF 393; > 100 µM (inactive) with SN12C. Moreover, the figures for the GI50 in the experiment with TK-10 and in the experiment with UO-31 were > 100 µM (inactive) and 38.6 µM (inactive), respectively.

(Values after ChEMBL document CHEMBL1201862, “PubChem BioAssay data set” (2004).)
